Laboratory results taken from ChEMBL document CHEMBL6134788, “Development of naphthalimide hydrazide derivatives as potent antibacterial agents against carbapenem-resistant A. baumannii” (RSC Med Chem, 2024).
In brackets after ≈: the same amount, converted by molar mass.

Experiments:
Assay type in all cases: functional
Conditions in all cases: time 16-18 hrs, read-out: MIC100
[1] = test system: Escherichia coli; assay: Antibacterial activity against Escherichia coli ATCC 25922 assessed as inhibition of bacterial growth incubated for 16 to 18 hrs by CLSI protocol based method
[2] = test system: Pseudomonas aeruginosa; assay: Antibacterial activity against Pseudomonas aeruginosa ATCC 27853 assessed as inhibition of bacterial growth incubated for 16 to 18 hrs by CLSI protocol based method
[3] = test system: Klebsiella pneumoniae; assay: Antibacterial activity against Klebsiella pneumoniae BAA 1705 assessed as inhibition of bacterial growth incubated for 16 to 18 hrs by CLSI protocol based method
[4] = test system: Staphylococcus aureus; assay: Antibacterial activity against Staphylococcus aureus ATCC 29213 assessed as inhibition of bacterial growth incubated for 16 to 18 hrs by CLSI protocol based method
[5] = test system: Acinetobacter baumannii; assay: Antibacterial activity against carbapenem-resistant Acinetobacter baumannii BAA 1605 assessed as inhibition of bacterial growth incubated for 16 to 18 hrs by CLSI protocol based method
[6] = test system: Acinetobacter baumannii; assay: Antibacterial activity against multi-drug resistant Acinetobacter baumannii Naval-17 assessed as inhibition of bacterial growth incubated for 16 to 18 hrs by CLSI protocol based method
[7] = test system: Acinetobacter baumannii; assay: Antibacterial activity against multi-drug resistant Acinetobacter baumannii clinical isolate 10 assessed as inhibition of bacterial growth incubated for 16 to 18 hrs by CLSI protocol based method
[8] = test system: Acinetobacter baumannii; assay: Antibacterial activity against multi-drug resistant Acinetobacter baumannii NR-17777 assessed as inhibition of bacterial growth incubated for 16 to 18 hrs by CLSI protocol based method
[9] = test system: Acinetobacter baumannii; assay: Antibacterial activity against Acinetobacter baumannii ATCC 17978 assessed as inhibition of bacterial growth incubated for 16 to 18 hrs by CLSI protocol based method
[10] = test system: Acinetobacter baumannii; assay: Antibacterial activity against multi-drug resistant Acinetobacter baumannii 5-189 assessed as inhibition of bacterial growth incubated for 16 to 18 hrs by CLSI protocol based method
[11] = test system: Acinetobacter baumannii; assay: Antibacterial activity against multi-drug resistant Acinetobacter baumannii clinical isolate 7 assessed as inhibition of bacterial growth incubated for 16 to 18 hrs by CLSI protocol based method
[12] = test system: Acinetobacter baumannii; assay: Antibacterial activity against multi-drug resistant Acinetobacter baumannii Naval-18 assessed as inhibition of bacterial growth incubated for 16 to 18 hrs by CLSI protocol based method
[13] = test system: Acinetobacter baumannii; assay: Antibacterial activity against multi-drug resistant Acinetobacter baumannii clinical isolate 1 assessed as inhibition of bacterial growth incubated for 16 to 18 hrs by CLSI protocol based method
[14] = test system: Acinetobacter baumannii; assay: Antibacterial activity against multi-drug resistant Acinetobacter baumannii 5-032 assessed as inhibition of bacterial growth incubated for 16 to 18 hrs by CLSI protocol based method
[15] = test system: Acinetobacter baumannii; assay: Antibacterial activity against multi-drug resistant Acinetobacter baumannii Naval-81 assessed as inhibition of bacterial growth incubated for 16 to 18 hrs by CLSI protocol based method
[16] = test system: Acinetobacter baumannii; assay: Antibacterial activity against multi-drug resistant Acinetobacter baumannii clinical isolate 12 assessed as inhibition of bacterial growth incubated for 16 to 18 hrs by CLSI protocol based method
[17] = test system: Acinetobacter baumannii; assay: Antibacterial activity against multi-drug resistant Acinetobacter baumannii clinical isolate 4 assessed as inhibition of bacterial growth incubated for 16 to 18 hrs by CLSI protocol based method
[18] = test system: Acinetobacter baumannii; assay: Antibacterial activity against multi-drug resistant Acinetobacter baumannii WL-487 assessed as inhibition of bacterial growth incubated for 16 to 18 hrs by CLSI protocol based method
[19] = test system: Acinetobacter baumannii; assay: Antibacterial activity against multi-drug resistant Acinetobacter baumannii BC-5 assessed as inhibition of bacterial growth incubated for 16 to 18 hrs by CLSI protocol based method
[20] = test system: Acinetobacter baumannii; assay: Antibacterial activity against multi-drug resistant Acinetobacter baumannii H72721 assessed as inhibition of bacterial growth incubated for 16 to 18 hrs by CLSI protocol based method
[21] = test system: Acinetobacter baumannii; assay: Antibacterial activity against multi-drug resistant Acinetobacter baumannii clinical isolate 9 assessed as inhibition of bacterial growth incubated for 16 to 18 hrs by CLSI protocol based method
[22] = test system: Acinetobacter baumannii; assay: Antibacterial activity against multi-drug resistant Acinetobacter baumannii clinical isolate 5 assessed as inhibition of bacterial growth incubated for 16 to 18 hrs by CLSI protocol based method
[23] = test system: Acinetobacter baumannii; assay: Antibacterial activity against multi-drug resistant Acinetobacter baumannii clinical isolate 8 assessed as inhibition of bacterial growth incubated for 16 to 18 hrs by CLSI protocol based method
[24] = test system: Acinetobacter baumannii; assay: Antibacterial activity against multi-drug resistant Acinetobacter baumannii WL-136 assessed as inhibition of bacterial growth incubated for 16 to 18 hrs by CLSI protocol based method
[25] = test system: Acinetobacter baumannii; assay: Antibacterial activity against multi-drug resistant Acinetobacter baumannii 5-109 assessed as inhibition of bacterial growth incubated for 16 to 18 hrs by CLSI protocol based method
[26] = test system: Acinetobacter baumannii; assay: Antibacterial activity against multi-drug resistant Acinetobacter baumannii clinical isolate 2 assessed as inhibition of bacterial growth incubated for 16 to 18 hrs by CLSI protocol based method
[27] = test system: Acinetobacter baumannii; assay: Antibacterial activity against multi-drug resistant Acinetobacter baumannii 5-143 assessed as inhibition of bacterial growth incubated for 16 to 18 hrs by CLSI protocol based method
[28] = test system: Acinetobacter baumannii; assay: Antibacterial activity against multi-drug resistant Acinetobacter baumannii clinical isolate 3 assessed as inhibition of bacterial growth incubated for 16 to 18 hrs by CLSI protocol based method
[29] = test system: Acinetobacter baumannii; assay: Antibacterial activity against multi-drug resistant Acinetobacter baumannii clinical isolate 6 assessed as inhibition of bacterial growth incubated for 16 to 18 hrs by CLSI protocol based method
[30] = test system: Acinetobacter baumannii; assay: Antibacterial activity against multi-drug resistant Acinetobacter baumannii clinical isolate 11 assessed as inhibition of bacterial growth incubated for 16 to 18 hrs by CLSI protocol based method

Compound: O=C(NNc1ccc(Cl)cc1)[C@@H](Cc1ccccc1)N1C(=O)c2cccc3cccc(c23)C1=O
- MIC [1]: > 64 µg/mL
- MIC [2]: > 64 µg/mL
- MIC [3]: > 64 µg/mL
- MIC [4]: > 64 µg/mL
- MIC [5]: 4 µg/mL (≈ 8.51 µM)

Compound: O=C(CCN1C(=O)c2cccc3cccc(c23)C1=O)NNc1cccc(F)c1
- MIC [1]: > 64 µg/mL
- MIC [2]: > 64 µg/mL
- MIC [3]: > 64 µg/mL
- MIC [4]: > 64 µg/mL
- MIC [5]: 1 µg/mL (≈ 2.65 µM)

Compound: CN(C)c1ccc(O)c2c1C[C@H]1C[C@H]3[C@H](N(C)C)C(O)=C(C(N)=O)C(=O)[C@@]3(O)C(O)=C1C2=O [MINOCYCLINE]
- MIC [6]: 16 µg/mL (≈ 35 µM)
- MIC [7]: 2 µg/mL (≈ 4.37 µM)
- MIC [8]: 2 µg/mL (≈ 4.37 µM)
- MIC [9]: 0.125 µg/mL (≈ 0.273 µM)
- MIC [10]: 8 µg/mL (≈ 17.5 µM)
- MIC [11]: 8 µg/mL (≈ 17.5 µM)
- MIC [12]: 1 µg/mL (≈ 2.19 µM)
- MIC [13]: 2 µg/mL (≈ 4.37 µM)
- MIC [14]: 0.25 µg/mL (≈ 0.546 µM)
- MIC [15]: 1 µg/mL (≈ 2.19 µM)
- MIC [16]: 4 µg/mL (≈ 8.74 µM)
- MIC [17]: 2 µg/mL (≈ 4.37 µM)
- MIC [18]: 0.25 µg/mL (≈ 0.546 µM)
- MIC [19]: 2 µg/mL (≈ 4.37 µM)
- MIC [20]: 2 µg/mL (≈ 4.37 µM)
- MIC [21]: 4 µg/mL (≈ 8.74 µM)
- MIC [22]: 8 µg/mL (≈ 17.5 µM)
- MIC [23]: 4 µg/mL (≈ 8.74 µM)
- MIC [24]: 0.25 µg/mL (≈ 0.546 µM)
- MIC [25]: 2 µg/mL (≈ 4.37 µM)
- MIC [5]: 2 µg/mL (≈ 4.37 µM)
- MIC [26]: 2 µg/mL (≈ 4.37 µM)
- MIC [27]: 0.25 µg/mL (≈ 0.546 µM)
- MIC [28]: 1 µg/mL (≈ 2.19 µM)
- MIC [29]: 4 µg/mL (≈ 8.74 µM)
- MIC [30]: 2 µg/mL (≈ 4.37 µM)

Compound: N#Cc1ccc(NNC(=O)CCCN2C(=O)c3cccc4cccc(c34)C2=O)cc1
- MIC [1]: > 64 µg/mL
- MIC [2]: > 64 µg/mL
- MIC [3]: > 64 µg/mL
- MIC [4]: > 64 µg/mL
- MIC [5]: 2 µg/mL (≈ 5.02 µM)

Compound: O=C(CCN1C(=O)c2cccc3cccc(c23)C1=O)NNc1ccccc1
- MIC [1]: > 64 µg/mL
- MIC [2]: > 64 µg/mL
- MIC [3]: > 64 µg/mL
- MIC [4]: > 64 µg/mL
- MIC [5]: 8 µg/mL (≈ 22.3 µM)

Compound: O=C(CCN1C(=O)c2cccc3c(Br)ccc(c23)C1=O)NNc1ccc(Cl)cc1
- MIC [1]: > 64 µg/mL
- MIC [2]: > 64 µg/mL
- MIC [3]: > 64 µg/mL
- MIC [4]: > 64 µg/mL
- MIC [5]: 4 µg/mL (≈ 8.46 µM)

Compound: N#Cc1ccc(NNC(=O)CCN2C(=O)c3cccc4c(Br)ccc(c34)C2=O)cc1
- MIC [1]: > 64 µg/mL
- MIC [2]: > 64 µg/mL
- MIC [3]: > 64 µg/mL
- MIC [4]: > 64 µg/mL
- MIC [5]: 4 µg/mL (≈ 8.63 µM)

Compound: CO[C@H]1/C=C/O[C@@]2(C)Oc3c(C)c(O)c4c(O)c(c(/C=N/N5CCN(C)CC5)c(O)c4c3C2=O)NC(=O)/C(C)=C\C=C\[C@H](C)[C@H](O)[C@@H](C)[C@@H](O)[C@@H](C)[C@H](OC(C)=O)[C@@H]1C [RIFAMPIN]
- MIC [5]: 4 µg/mL (≈ 4.86 µM)

Compound: Cc1ccc(NNC(=O)CCN2C(=O)c3cccc4cccc(c34)C2=O)c(C)c1
- MIC [1]: > 64 µg/mL
- MIC [2]: > 64 µg/mL
- MIC [3]: > 64 µg/mL
- MIC [4]: > 64 µg/mL
- MIC [5]: > 64 µg/mL

Compound: O=C(CCN1C(=O)c2cccc3c(Br)ccc(c23)C1=O)NNc1ccc(Br)cc1
- MIC [1]: > 64 µg/mL
- MIC [2]: > 64 µg/mL
- MIC [3]: > 64 µg/mL
- MIC [4]: > 64 µg/mL
- MIC [5]: 4 µg/mL (≈ 7.73 µM)

Compound: O=C(CCCCCN1C(=O)c2cccc3cccc(c23)C1=O)NNc1ccccc1
- MIC [1]: > 64 µg/mL
- MIC [2]: > 64 µg/mL
- MIC [3]: > 64 µg/mL
- MIC [4]: > 64 µg/mL
- MIC [5]: 8 µg/mL (≈ 19.9 µM)

Compound: N#Cc1ccc(NNC(=O)CCCCCN2C(=O)c3cccc4cccc(c34)C2=O)cc1
- MIC [1]: > 64 µg/mL
- MIC [2]: > 64 µg/mL
- MIC [3]: > 64 µg/mL
- MIC [4]: > 64 µg/mL
- MIC [5]: > 64 µg/mL

Compound: O=C(CCN1C(=O)c2cccc3cccc(c23)C1=O)NNc1ccccc1Br
- MIC [1]: > 64 µg/mL
- MIC [2]: > 64 µg/mL
- MIC [3]: > 64 µg/mL
- MIC [4]: > 64 µg/mL
- MIC [5]: > 64 µg/mL

Compound: O=C(NNc1ccc(Br)cc1)[C@@H](Cc1ccccc1)N1C(=O)c2cccc3cccc(c23)C1=O
- MIC [1]: > 64 µg/mL
- MIC [2]: > 64 µg/mL
- MIC [3]: > 64 µg/mL
- MIC [4]: > 64 µg/mL
- MIC [5]: 8 µg/mL (≈ 15.6 µM)
